# In PubChem BioAssay (NCI):
#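 Interpolation was linear, between the two tested concentrations surrounding the appropriate level; five concentrations were tested over 48 hours in 96-well plates. At the TGI there is no net growth.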
# Tested on: SN12K1 renal
# Experiment: NCI anticancer screen, dose series, 48 h
compound,measurement,value
CCOC(=O)c1ccc(N[C@@H]2c3cc4c(cc3C(c3cc(OC)c(O)c(OC)c3)[C@H]3C(=O)OCC32)OCO4)cc1 (stereo partly specified),TGI,1.44 µM
